Measurements published in ChEMBL document CHEMBL5214899, “Tailor-made amino acids in the design of small-molecule blockbuster drugs” (Eur J Med Chem, 2021).
pEC50, pIC50: −log10 of the molar value.

Tests used:
SARS-CoV = assay: Antiviral activity against SARS 2019-nCoV infected in African green monkey Vero E6 cells assessed as inhibition of viral infection preincubated and measured after 48 hrs by qRT-PCR analysis; type: functional; details: Severe acute respiratory syndrome-related coronavirus, Vero C1008
[1] = tested on: Human immunodeficiency virus 1; assay: Antiviral activity against HIV-1 IIIb infected in human MT2 cells assessed as reduction in virus induced cytopathic effect and measured after 5 days by XTT assay; type: functional, organism-based; details: Human immunodeficiency virus 1, IIIb, MT2, 120 h
[2] = Inhibition of TNF-alpha release in LPS stimulated human PBMC; type: functional, cell-based

Row | SMILES | pEC50 [1] | also measured
1 | CCC(CC)COC(=O)[C@H](C)N[P@](=O)(OC[C@H]1O[C@@](C#N)(c2ccc3c(N)ncnn23)[C@H](O)[C@@H]1O)Oc1ccccc1 [REMDESIVIR] |  | EC90 (SARS-CoV): 1.76 µM
2 | C[C@H](Cn1cnc2c(N)ncnc21)OCP(=O)(O)N[C@H](C)C(=O)O | 5.00 | 
3 | C[C@H](Cn1cnc2c(N)ncnc21)OCP(=O)(O)O [TENOFOVIR ANHYDROUS] | 5.30 | 
4 | Nc1cccc2c1CN(C1CCC(=O)NC1=O)C2=O (centres undefined) [LENALIDOMIDE] |  | pIC50 [2]: 7.00
